Results on one compound are retold here after publication PMC8333425, “Discovery of a dual Ras and ARF6 inhibitor from a GPCR endocytosis screen” (Nature Communications, 2021).

Where “and” joins values, the source holds several entries; their conditions need not be identical. Identical values can stand only once.

One assay concerns the target H-Ras (Homo sapiens, UniProt P01112). The experiment in a line: In vitro mant-GTP exchange assay, purified H-Ras with 40 mM EDTA. The assay is classed as biochemical. On the set-up: the cDNA of H-Ras (full length) was obtained by RT-PCR of HEK293SL; GST (N); made in house; host or cells: E. coli BL21. Here is the method:
(§1) Ras activity was assessed in a 384-well black bottom plate using the mant-GTP exchange factor assay that measures the uptake of the fluorescent nucleotide analog N-methylanthraniloyl-GTP (mant-GTP) into GTPases. For Ras activation, 2X exchange buffer, 1.66 μg of purified pGEX-6P-1-H-Ras or pGEX-6P-1-K-Ras-WT or pGEX-6P-1-K-Ras-Y32A were added per well in presence of DMSO, different concentrations of Rasarfin (as indicated) or 50 µM of compounds 21.4, 21.7, or 21.8. Using the Infinite 200 Pro plate reader (Tecan) with filters set at 360 nm and 440 nm for detecting the excitation and emissions, respectively, and temperature set at 20 °C, 5 readings were recorded every 5 s before the addition of either H2O, 40 mM EDTA or 0.66 μg purified SOS1. The fluorescence of mant-GTP uptake was measured every 30 sec for 30 min and quantified as the delta relative fluorescence units (RFU), which was calculated as the RFU post-addition minus the 5 averaged RFU pre-addition, per condition.

Another assay has as its target T1, RhoA (Homo sapiens, UniProt P61586).
T1 construct: endogenous in cells; host or cells: HEK293SL
The experiment in a line: GST-Rhotekin-RBD pull-down of AT1R-mediated RhoA activation. The assay is classed as cell-based. To be noted: for Rho-GTP/Rho: GST-Rhotekin-RBD, listed as Comp 21. On the procedure:
Activation of ARF1, ARF6, Ras, and Rho were assessed by using GST pull-down assays. HEK293SL cells were transiently transfected with 3 µg AT1R-flag only (Ras and Rho) or along with 500 ng HA-ARF6 (ARF6) or HA-ARF1 (ARF1). Forty-eight hours later, the HEK293 or MDA-MB-231 cells were serum-starved for 4 h with DMEM containing 20 mM HEPES then pretreated with DMSO or Rasarfin (50 µM) for 30 min. Cells were then stimulated with 1 µM AngII or 100 ng/ml EGF for 0 and 2 min. Cells were then washed once with ice-cold PBS and lysed for 30 min at 4 °C in 300 µl of lysis buffer (pH 7.5, 50 mM Tris-HCl, 140 mM NaCl, 5 mM MgCl2, 10% glycerol (v/v), 1% Nonidet P-40 (v/v), 1 mM dithiothreitol) supplemented with protease inhibitors (1 mM phenylmethyl-sulfonyl fluoride (PMSF), 10 µg/ml leupeptin, 5 µg/ml aprotinin, 1 µg/ml pepstatin A) and phosphatase inhibitors (20 mM NaF, 0.025 mM pervanadate). The samples were cleared by centrifugation and 30 µl (cell lysates) was kept for assessing total protein contents. The remaining was transferred to fresh tubes with 20 µg of either GST, GST-GGA3-PBD, GST-Raf1-RBD or GST-Rhotekin-RBD coupled to glutathione resin and rotated for 1–2 h at 4 °C. Beads were washed twice with lysis buffer and proteins were eluted in 25 μl 2x laemmli buffer by heating at 65 °C for 15 min. Proteins were resolved on 14% SDS-PAGE, transferred to nitrocellulose membranes, and immunoblotted for HA, Ras, RhoA, H-Ras, or ARF6. ImageLab 5.2 software was used to quantify the digital blots as fold of the amount of pulled down protein over total protein. Uncropped coomassie gels and immunoblots are provided in the Source Data file.

For assay [1], the target named is T2, 384 kinases from the human genome (Homo sapiens, UniProt P33981).
T2 construct: purchased Eurofin/DiscoverX
T2 sequence (P33981 whole entry): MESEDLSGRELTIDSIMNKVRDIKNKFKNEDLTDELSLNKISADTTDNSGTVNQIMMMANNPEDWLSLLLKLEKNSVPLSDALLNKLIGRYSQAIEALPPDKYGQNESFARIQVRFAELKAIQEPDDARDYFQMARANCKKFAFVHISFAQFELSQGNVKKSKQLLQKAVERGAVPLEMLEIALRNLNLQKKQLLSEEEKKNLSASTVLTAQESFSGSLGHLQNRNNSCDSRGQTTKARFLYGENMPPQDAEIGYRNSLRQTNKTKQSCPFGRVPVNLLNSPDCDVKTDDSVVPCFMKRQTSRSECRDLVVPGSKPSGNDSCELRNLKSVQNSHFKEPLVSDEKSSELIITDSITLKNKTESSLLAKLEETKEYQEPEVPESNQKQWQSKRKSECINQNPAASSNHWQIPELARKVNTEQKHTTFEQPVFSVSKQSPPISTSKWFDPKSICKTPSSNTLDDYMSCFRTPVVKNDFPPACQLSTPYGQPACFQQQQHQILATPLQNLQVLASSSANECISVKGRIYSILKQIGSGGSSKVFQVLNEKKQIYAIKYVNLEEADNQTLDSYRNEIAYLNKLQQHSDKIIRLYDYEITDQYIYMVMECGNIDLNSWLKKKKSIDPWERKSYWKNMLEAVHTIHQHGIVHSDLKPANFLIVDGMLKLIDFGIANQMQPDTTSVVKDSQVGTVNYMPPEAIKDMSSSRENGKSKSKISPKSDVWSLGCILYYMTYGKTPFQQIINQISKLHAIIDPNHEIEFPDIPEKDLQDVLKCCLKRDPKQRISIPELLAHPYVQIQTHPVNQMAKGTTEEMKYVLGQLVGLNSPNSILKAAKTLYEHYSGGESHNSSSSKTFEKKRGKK
The experiment in a line: KINOMEscan kinase binding assay. To be noted: kinase TTK (Entrez TTK). An excerpt: We reasoned that because internalizing AT1R and its targeting to intracellular compartments can support continued MAPK signaling, and since 21 inhibits receptor internalization, it should also impede to some extent ERK1/2 activation. […] Receptor-mediated ERK1/2 signaling can involve upstream kinases such as PKC, BRAF, and MEK1[35],[36]. […] To exclude other kinases potentially involved in ERK1/2 and Akt activation as targets of 21, we ran a kinase binding assay (KINOMEscan™) on 384 kinases from the human genome. Remarkably, a very high selectivity score S(10) of 0.008 was found (Supplementary Data 3).
The chemical library used for initial screening was from Chembridge DiverSet™ (60,000 compounds), Maybridge HitFinder™ (16,000 compounds), Maybridge (selected, 16,000 compounds), SPECS (selected, 16000 compounds), Microsource Discovery Spectrum (2000 compounds), Biomol (natural products, 500 compounds), Prestwick (commercialized products, 1120 compounds), SIGMA LopacTM (1280 compounds) and internal collection (synthesized at Université de Montréal-IRIC, ~4000 compounds). Compounds were all assigned an Université de Montréal number (UM) for internal use. Screen was performed at IRIC HTS facility. KINOMEscan™ profiling was serviced by Eurofin/DiscoverX (San Diego, USA).
Description of Additional Supplementary Files […]
File Name: Supplementary Data 3
Description: KINOMEscan results. Compound 21’s effect was tested on 384 kinases. Data represent kinases binding to their ligands in presence of 10 µM of 21, as compared to DMSO (100%). Results are from one experiment and represent the average of duplicates. Three kinases (FLT3, KIT, and PDGFRB) out of 384 were more than 90% affected (selectivity score S(10) of 0.008). […]

A further assay has as its target K-Ras (Homo sapiens, UniProt P01116). The experiment in a line: In vitro mant-GTP exchange assay, purified K-Ras-WT with SOS1. The assay is classed as biochemical. Also on record: GST (N); FLAG (N); host or cells: E. coli BL21. To be noted: 50 μM. Here is the method:
as §1

A further assay deals with β-arrestin2. Put plainly: Confocal microscopy of β-arrestin2-YFP trafficking with AT1R. The assay is classed as cell-based, human. To be noted: 50 μM; AngII. On the procedure:
One day before transfection, cells were seeded in 35-mm glass-bottom dishes (MatTek Corporation) at a density of 1 × 10^5 cells per dish. For the recordings of receptor internalization, HEK293 SL cells were transfected with 2 μg of AT1R-YFP. For the recordings of β-arrestin-2 recruitment to the receptor, HEK293SL cells were transfected with 50 ng of β-arrestin2-YFP and 250 ng of Flag-AT1R or HA-B2R. Forty-eight hours post-transfection, cells were serum starved, preincubated with DMSO (0.1% final concentration) or Rasarfin (50 μM) for 30 min at 37 °C. AT1R-expressing cells were stimulated with angiotensinII (AngII; 100 nM) and B2R-expressing cells were stimulated with bradykinin (BK; 1 μM) for 30 min (receptor-YFP) or 15 min (β-arrestin2-YFP). Cells were imaged with Zeiss LSM-510 and/or LSM-710 laser scanning confocal microscope. To detect YFP, […] and BP 505–550 nm emission filter. Images (2048 × 2048) were collected using a 63x oil immersion lens.

T1 sequence (P61586 whole entry): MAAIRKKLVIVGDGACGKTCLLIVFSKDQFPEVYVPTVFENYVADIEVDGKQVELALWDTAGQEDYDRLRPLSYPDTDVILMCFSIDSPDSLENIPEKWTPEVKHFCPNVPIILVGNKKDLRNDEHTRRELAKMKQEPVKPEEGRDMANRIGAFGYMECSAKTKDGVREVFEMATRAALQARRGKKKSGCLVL
H-Ras, sequence (P01112 whole entry): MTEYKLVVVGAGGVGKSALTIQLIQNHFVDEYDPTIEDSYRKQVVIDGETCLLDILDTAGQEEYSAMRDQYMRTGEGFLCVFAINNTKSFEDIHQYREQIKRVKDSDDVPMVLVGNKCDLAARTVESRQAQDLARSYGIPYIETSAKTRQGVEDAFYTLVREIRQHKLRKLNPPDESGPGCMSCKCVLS
K-Ras, sequence (P01116 1-188 isoform P01116-2): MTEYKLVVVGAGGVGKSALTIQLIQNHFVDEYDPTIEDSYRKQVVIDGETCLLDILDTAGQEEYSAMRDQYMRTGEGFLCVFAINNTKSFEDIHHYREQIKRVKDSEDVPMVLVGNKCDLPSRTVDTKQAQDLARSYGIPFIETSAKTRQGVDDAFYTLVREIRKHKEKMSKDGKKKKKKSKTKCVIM

As to `CC(C)C(=O)N1CCN(c2ccc(NC(=O)c3cc4ccccc4o3)cc2Cl)CC1` [Compound 21], the “mant-GTP binding to purified H-Ras promoted by EDTA” value on H-Ras is listed as “also inhibited mant-GTP binding promoted by EDTA”. For the same compound, the “pull-down of Rho-GTP by GST-Rhotekin-RBD from cells stimulated with AT1R” value at RhoA (50 μM) is recorded as “nor did it prevent the pull-down of Rho-GTP”. Further, the Rho-GTP/Rho at RhoA (AngII) is 0.2491 and 0.2385 and 0.2151 and 0.2027; at RhoA (Ctrl), 0.1261 and 0.1465 and 0.07786 and 0.1043. In addition, in assay [1], the “Percent Control” value was found to be 92%. In addition, the “SOS-mediated mant-GTP binding onto purified K-Ras” value at K-Ras is listed as “inhibited the SOS-mediated mant-GTP binding”. In the assay with β-arrestin2, the “β-arrestin trafficking with AT1R into endosomes (microscopy)” value is “prevented β-arrestins’ trafficking with receptors into endosomes”.
